Experimental data published in US11793755B2, “Pharmaceutical composition for intraarticular delivery” (TAIWAN LIPOSOME CO., LTD., priority 2012, dated 2023).
Where two headings read alike, the source gives them in different places.

Columns and labels:
[1] = test system: arthritis induced with bovine type II collagen; assay: Single IA injection of DSP sustained release compositions in arthritic rats (Example 3); assay type: in vivo, Lewis rats
Method: Sixteen female rats, aged 8 weeks, were used in the study. The average body weight of the rats was from about 180 to about 200 grams.
To induce arthritis, each rat was immunized with 200 μg of bovine type II collagen (4 mg/ml stocked in 10 mM acetic acid, commercially available from Elastin Products, Owensville, USA) emulsified in Freund's incomplete adjuvant (commercially available from Sigma Chemical Co., USA) on day 0 and then again on day 7.
The rats were randomized into the following 4 study groups:
Group 1: 4 rats each received 100 μl of saline per paw (labeled “Saline Control in FIGS. 1-8)
Group 3: 4 rats each received 100 μl of the sustained release composition 1 per paw, wherein the concentration of DSP is 1 mg/ml (labeled “TLC399_1 mg/mg in FIGS. 1-4 and “TLC399_I 4 mg/ml in FIGS. 5-8).
Group 4: 4 rats each received 100 μl of the sustained release composition 2 per paw, wherein the concentration of DSP is 1.4 mg/ml (labeled “TLC399_1.4 mg/mg in FIGS. 1-4 and “TLC399_II 1.4 mg/ml in FIGS. 5-8).
The control or the DSP formulation was administered to both hind paws of the rat as a once only IA injection on day 19.

[2] = test system: arthritis induced with bovine type II collagen; assay: Four daily IA injections of DSP sustained release compositions in arthritic rats (Example 4); assay type: in vivo, Lewis rats; settings: four daily IA injections day 26 to day 29
Source text: (§1) During the 14-day study period, the rats were examined 3 times a week for the following outcomes: • Body weight loss, which is one of the parameters for evaluating the severity of arthritis. • Clinical Visual Arthritis Score, which is a visual score which correlates with the severity of arthritis. It was graded using an articular index of each paw, ranging from 0 to 4 (0=no edema or erythema on the foot pad; 1=slight edema and erythema on the foot pad; 2=mild edema and erythema on the foot pad; 3=moderate edema and erythema on the entire foot pad and the ankle; 4=severe edema and joint rigidity of the ankle, foot and digits). The Clinical Visual Arthritis Score for each rat was the sum of the articular index of both hind paws, with a maximum score of 8. • Hind paw volume and swelling. The hind paw volume was measured by UGO Plethysmometer 7149 measuring system. The final volume data was normalized with the average body weight (ml/kg) and edema was defined as the increase in paw volume on the day of measurement relative to day 0.

[3] = test system: collagen-induced arthritis; assay: Collagen-induced arthritis model, indomethacin sustained release composition (Example 6); assay type: in vivo, Lewis rats
Source text: as §1
An in vivo evaluation of the effect of the indomethacin sustained release composition on arthritis was performed using 18 female Lewis rats (BioLASCO Taiwan Co, Ltd., Taiwan).
The arthritis treatments were initiated at the peak of the clinical visual arthritis score, which occurred at day 19. Eighteen rats were randomly divided into three groups (6 rats in each group): (1) control group (without any treatment, labeled “Control” in FIG. 9); (2) free indomethacin group (2 mg/kg indomethacin per dose, labeled “Indomethacin (2 mg/kg) in FIG. 9); and (3) indomethacin sustained release composition group (2 mg/kg indomethacin per dose; labeled “Indomethacin-BioSeizer (2 mg/kg) in FIG. 9). The rats in each group were given no treatment (control group), daily subcutaneous injection around the arthritis joints of free indomethacin or indomethacin sustained release composition, from day 19 to day 23.

[4] = test system: collagen-induced arthritis
Source text: as §1

[5] = test system: collagen-induced arthritis; assay: Collagen-induced arthritis model, etanercept sustained release composition (Example 8); assay type: in vivo, Lewis rats
[6] = day 30, doses on day 23 and day 26

In the case of “dexamethasone sodium phosphate [free DSP]”, the “paw swelling thickness, both paws” value ([1]; day 23, volume normalized with body weight) is reported as “around 7.5 ml/kg”, the “clinical visual arthritis score” value ([1]; day 26, single IA injection on day 19) is reported as 4.5 and the “clinical visual arthritis score, average” value ([1]; prior to the IA injection (day 19), sum of both hind paws, maximum 8) is reported as 4.0. For the same molecule, the “day on which both paws became swollen again” value ([1]; single IA injection on day 19) was 23 days, the “clinical visual arthritis score, lowest recorded” value ([2]; day 30) was 3 and the “day on which paws were swollen again / first sign of paw swelling” value [2] was 31 days. The “day on which relapsed arthritis signs became severe” value [2] was 33 days.
In the case of COc1ccc2c(c1)c(CC(=O)O)c(C)n2C(=O)c1ccc(Cl)cc1 [free indomethacin, Indomethacin sodium], the “average arthritis score before treatment” value ([3]; before the first dose on day 19) is reported as 7.4, the average arthritis score ([3]; day 20, 2 mg/kg indomethacin per dose, daily from day 19 to day 23) is reported as 5 and the arthritis score ([3]; day 25, after termination of treatment on day 23) is reported as 8. The “time after termination of treatment until arthritis signs returned / amelioration continued” value ([3]; treatment day 19 to day 23) was 2 days.
In the case of CN(Cc1cnc2nc(N)nc(N)c2n1)c1ccc(C(=O)N[C@@H](CCC(=O)[O-])C(=O)[O-])cc1.[Na+].[Na+] [free methotrexate, methotrexate sodium], the “average arthritis score before treatment” value ([4]; before the first dose on day 23) is reported as 3.7, the average arthritis score ([4]; day 26, 1 mg/kg methotrexate per dose on day 23 and day 26) is reported as 1.4 and the arthritis score [4, 6] is reported as 3.5. For the same molecule, the “time after termination of treatment until arthritis signs returned / amelioration continued” value ([4]; doses on day 23 and day 26) was 4 days.
For etanercept [free etanercept], the average arthritis score ([5]; day 26, 50 mg/kg etanercept per dose on day 23 and day 26) was 2.4, the arthritis score [5, 6] was 4 and the “time after termination of treatment until arthritis relapsed / amelioration continued” value ([5]; doses on day 23 and day 26) was 3 days.
